# Source: patent publication US9181222B2, “Protein kinase C inhibitors and uses thereof” (Rigel Pharmaceuticals, Inc., priority 2010, dated 2015)
# System: Human primary T cells
# Assay: IL-2 ELISA, Human Primary T Cell, Anti-CD3+CD28+ (Whole Cell Assay)
# Assay type: cell-based
# Conditions: IL-2 by ELISA, human primary T cells pre-incubated with compound 1 hr, stimulated with αCD3 and αCD28, 24 hours
# Description: IL-2 ELISA, Human Primary T Cell, Anti-CD3+CD28+ (Whole Cell Assay)
# Human primary T cell isolation and culture: Human primary T cells were prepared as follows. Whole blood was obtained from a healthy volunteer, mixed 1:1 with PBS, layered on to Ficoll Hypaque (Amersham Pharmacia Biotech, Piscataway, N.J., Catalog #17-1440-03) in 2:1 blood/PBS:ficoll ratio and centrifuged for 30 min at 4° C. at 1750 rpm. The cells at the serum: ficoll interface were recovered and washed twice with 5 volumes of PBS. These freshly isolated human peripheral blood mononuclear cells were cultured in Yssel's medium containing 40 U/mL IL2 in a flask pre-coated with 1 μg/mL αCD3 and 5 μg/mL αCD28 (Anti-Human CD3, BD Pharmingen Catalog #555336, Anti-Human CD28, Beckman Coulter Catalog #1M1376). The cells were stimulated for 3-4 days, then transferred to a fresh flask and maintained in RPMI (RPMI-1640 with L-Glutamine; Mediatech, Inc., Herndon Va., cat. #10-040-CM) with 10% FBS and 40 U/mL IL-2. The primary T-cells were then washed twice with PBS to remove the IL-2.
# Primary T cell stimulation and IL2 ELISA: Human primary T cells (100,000 cells per well) were pre-incubated with or without test compound in Yssel's medium for 1 hr at 37° C. Cells were then stimulated by transferring them to round-bottom 96-well plates pre-coated with 1 μg/ml αCD3 and 5 μg/ml αCD28. For counter assay, cells were instead stimulated by adding 8× stock solutions of PMA and ionomycin in Yssels (for final concentrations of 0.5 ng/ml PMA and 0.1 μM ionomycin, both from Calbiochem). Cells were incubated at 37° C. for 24 hours before 100 μL supernatants were harvested for quantification of IL-2 by ELISA using Human IL-2 Duoset ELISA Kit from R and D Systems, Cat. # DY202E.
row,IC50,SMILES
1,250 to 500 nM,"CC(C)c1ccc(Nc2ncc(C(N)=O)c(NC3CC(C)(C)NC(C)(C)C3)n2)cc1-n1cnnn1 [Compound I-10, 2-(4-Isopropyl-3-tetrazol-1-yl-phenylamino)-4-(2,2,6,6-tetramethyl-piperidin-4-ylamino)-pyrimidine-5-carboxylic acid amide]"
2,< 250 nM,"CC(C)c1ccc(Nc2ncc(C#N)c(NC3CC(C)(C)NC(C)(C)C3)n2)cc1-n1cnnn1 [Compound I-11, 2-(4-Isopropyl-3-tetrazol-1-yl-phenylamino)-4-(2,2,6,6-tetramethyl-piperidin-4-ylamino)-pyrimidine-5-carbonitrile]"
3,500 to 1000 nM,"CC1(C)CC(Nc2nc(Nc3cc(-n4cnnn4)c(C4CC4)cc3F)ncc2C(N)=O)CC(C)(C)N1 [Compound I-3, 2-(4-Cyclopropyl-2-fluoro-5-tetrazol-1-yl-phenylamino)-4-(2,2,6,6-tetramethyl-piperidin-4-ylamino)-pyrimidine-5-carboxylic acid amide]"
4,< 250 nM,"CC1(C)CC(Nc2nc(Nc3ccc(C4CC4)c(-n4nnnc4C(F)(F)F)c3)ncc2F)CC(C)(C)N1 [Compound I-15, N2-[4-Cyclopropyl-3-(5-trifluoromethyl-tetrazol-1-yl)-phenyl]-5-fluoro-N4-(2,2,6,6-tetramethyl-piperidin-4-yl)-pyrimidine-2,4-diamine]"
5,< 250 nM,"CC1(C)CC(Nc2nc(Nc3cc(-n4cnnn4)c(C4CC4)cc3F)ncc2F)CC(C)(C)N1 [Compound I-12, N2-(4-Cyclopropyl-2-fluoro-5-tetrazol-1-yl-phenyl)-5-fluoro-N4-(2,2,6,6-tetramethyl-piperidin-4-yl)-pyrimidine-2,4-diamine]"
6,< 250 nM,"CC1(C)CC(Nc2nc(Nc3cc(F)c(C4CC4)c(-n4cnnn4)c3)ncc2C#N)CC(C)(C)N1 [Compound I-4, 2-(4-Cyclopropyl-3-fluoro-5-tetrazol-1-yl-phenylamino)-4-(2,2,6,6-tetramethyl-piperidin-4-ylamino)-pyrimidine-5-carbonitrile]"
7,< 250 nM,"CC1(C)CC(Nc2nc(Nc3cc(-n4nnnc4C4CC4)c(C4CC4)cc3F)ncc2F)CC(C)(C)N1 [Compound I-17, N2-(4-cyclopropyl-5-(5-cyclopropyl-1H-tetrazol-1-yl)-2-fluorophenyl)-5-fluoro-N4-(2,2,6,6-tetramethylpiperidin-4-yl)pyrimidine-2,4-diamine]"
8,< 250 nM,"CC1(C)CC(Nc2nc(Nc3cc(-n4cnnn4)ccc3F)ncc2F)CC(C)(C)N1 [Compound I-13, 5-Fluoro-N2-(2-fluoro-5-tetrazol-1-yl-phenyl)-N4-(2,2,6,6-tetramethyl-piperidin-4-yl)-pyrimidine-2,4-diamine]"
9,< 250 nM,"CC1(C)CC(Nc2nc(Nc3cc(-n4nnnc4C(F)(F)F)c(C4CC4)cc3F)ncc2F)CC(C)(C)N1 [Compound I-19, N2-(4-cyclopropyl-2-fluoro-5-(5-(trifluoromethyl)-1H-tetrazol-1-yl)phenyl)-5-fluoro-N4-(2,2,6,6-tetramethylpiperidin-4-yl)pyrimidine-2,4-diamine]"
10,< 250 nM,"CN1C(C)(C)CC(Nc2nc(Nc3cc(-n4cnnn4)ccc3F)ncc2F)CC1(C)C [Compound I-14, 5-Fluoro-N2-(2-fluoro-5-tetrazol-1-yl-phenyl)-N4-(1,2,2,6,6-pentamethyl-piperidin-4-yl)-pyrimidine-2,4-diamine]"
11,< 250 nM,"Cc1nnnn1-c1cc(Nc2ncc(F)c(NC3CC(C)(C)NC(C)(C)C3)n2)c(F)cc1C1CC1 [Compound I-18, N2-(4-cyclopropyl-2-fluoro-5-(5-methyl-1H-tetrazol-1-yl)phenyl)-5-fluoro-N4-(2,2,6,6-tetramethylpiperidin-4-yl)pyrimidine-2,4-diamine]"
12,< 250 nM,"CC(C)c1nnnn1-c1cc(Nc2ncc(F)c(NC3CC(C)(C)NC(C)(C)C3)n2)c(F)cc1C1CC1 [Compound I-16, N2-(4-cyclopropyl-2-fluoro-5-(5-isopropyl-1H-tetrazol-1-yl)phenyl)-5-fluoro-N4-(2,2,6,6-tetramethylpiperidin-4-yl)pyrimidine-2,4-diamine]"
13,< 250 nM,"CC1(C)CC(Nc2nc(Nc3cc(-n4nnnc4CF)c(C4CC4)cc3F)ncc2F)CC(C)(C)N1 [Compound I-20, N2-(4-cyclopropyl-2-fluoro-5-(5-(fluoromethyl)-1H-tetrazol-1-yl)phenyl)-5-fluoro-N4-(2,2,6,6-tetramethylpiperidin-4-yl)pyrimidine-2,4-diamine]"
14,< 250 nM,"CC(C)c1ccc(Nc2ncc(F)c(NC3CC(C)(C)NC(C)(C)C3)n2)cc1-n1cnnn1 [Compound I-9, 5-Fluoro-N2-(4-isopropyl-3-tetrazol-1-yl-phenyl)-N4-(2,2,6,6-tetramethyl-piperidin-4-yl)-pyrimidine-2,4-diamine]"
15,< 250 nM,"CC(C)c1cc(F)c(Nc2ncc(C#N)c(NC3CC(C)(C)NC(C)(C)C3)n2)cc1-n1cnnn1 [Compound I-8, 2-(2-Fluoro-4-isopropyl-5-tetrazol-1-yl-phenylamino)-4-(2,2,6,6-tetramethyl-piperidin-4-ylamino)-pyrimidine-5-carbonitrile]"
16,< 250 nM,"CC1(C)CC(Nc2nc(Nc3cc(C4CC4)c(F)c(-n4cnnn4)c3)ncc2F)CC(C)(C)N1 [Compound I-7, N2-(3-Cyclopropyl-4-fluoro-5-tetrazol-1-yl-phenyl)-5-fluoro-N4-(2,2,6,6-tetramethyl-piperidin-4-yl)-pyrimidine-2,4-diamine]"
17,< 250 nM,"CC1(C)CC(Nc2nc(Nc3cc(-n4cnnn4)c(C4CC4)cc3F)ncc2C#N)CC(C)(C)N1 [Compound I-2, 2-(4-Cyclopropyl-2-fluoro-5-tetrazol-1-yl-phenylamino)-4-(2,2,6,6-tetramethyl-piperidin-4-ylamino)-pyrimidine-5-carbonitrile]"
18,< 250 nM,"CC1(C)CC(Nc2nc(Nc3cc(C4CC4)c(F)c(-n4cnnn4)c3)ncc2C#N)CC(C)(C)N1 [Compound I-6, 2-(3-Cyclopropyl-4-fluoro-5-tetrazol-1-yl-phenylamino)-4-(2,2,6,6-tetramethyl-piperidin-4-ylamino)-pyrimidine-5-carbonitrile]"
19,< 250 nM,"CC1(C)CC(Nc2nc(Nc3cc(F)c(C4CC4)c(-n4cnnn4)c3)ncc2F)CC(C)(C)N1 [Compound I-5, N2-(4-Cyclopropyl-3-fluoro-5-tetrazol-1-yl-phenyl)-5-fluoro-N4-(2,2,6,6-tetramethyl-piperidin-4-yl)-pyrimidine-2,4-diamine]"
